Source: PubChem BioAssay AID1259407 (Chemical Carcinogenesis Research Information System (CCRIS), 2018)
The source made the active and inactive calls. No rule for the calls is given here.

Test system: CCRIS mutagenicity, Ames/micronucleus/aberration tests
Assay: CCRIS mutagenicity studies

C1COCCO1
mutagenic call (End Point: IN VITRO CHROMOSOMAL ABERRATIONS, Test System: CHINESE HAMSTER OVARY CELLS, Metabolic Activation: NONE): inactive; negative | mutagenic call (End Point: IN VITRO CHROMOSOMAL ABERRATIONS, Test System: CHINESE HAMSTER OVARY CELLS, Metabolic Activation: RAT, LIVER, S-9, AROCLOR 1254): inactive; negative | mutagenic call (End Point: IN VIVO MICRONUCLEUS, Test System: BONE MARROW ERYTHROCYTES, Species: MOUSE, Strain/Sex: CD-1/MALE, Route: ORAL (GAVAGE)): active; positive | mutagenic call (End Point: IN VIVO MICRONUCLEUS, Test System: HEPATOCYTES (BRDU-LABELING), Species: MOUSE, Strain/Sex: CD-1/MALE, Route: ORAL (GAVAGE)): active; positive | mutagenic call (Test System: AMES SALMONELLA TYPHIMURIUM, Strain/Indicator: TA98, Metabolic Activation: HAMSTER LIVER S-9, PHENOBARBITAL AND BETA-NAPHTHOFLAVONE (10%), Method: PREINCUBATION): inactive; negative | mutagenic call (Test System: AMES SALMONELLA TYPHIMURIUM, Strain/Indicator: TA98, Metabolic Activation: HAMSTER LIVER S-9, PHENOBARBITAL AND BETA-NAPHTHOFLAVONE (30%), Method: PREINCUBATION): inactive; negative | mutagenic call (Test System: AMES SALMONELLA TYPHIMURIUM, Strain/Indicator: TA98, Metabolic Activation: NONE, Method: GAS EXPOSURE): inactive; negative | mutagenic call (Test System: AMES SALMONELLA TYPHIMURIUM, Strain/Indicator: TA98, Metabolic Activation: NONE, Method: PREINCUBATION): inactive; negative | mutagenic call (Test System: AMES SALMONELLA TYPHIMURIUM, Strain/Indicator: TA98, Metabolic Activation: NONE, Method: STANDARD PLATE): inactive; negative | mutagenic call (Test System: AMES SALMONELLA TYPHIMURIUM, Strain/Indicator: TA98, Metabolic Activation: RAT LIVER S-9, PHENOBARBITAL AND 5,6-BENZOFLAVONE, Method: PREINCUBATION): inactive; negative | mutagenic call (Test System: AMES SALMONELLA TYPHIMURIUM, Strain/Indicator: TA98, Metabolic Activation: RAT LIVER S-9, PHENOBARBITAL AND 5,6-BENZOFLAVONE, Method: STANDARD PLATE): inactive; negative | mutagenic call (Test System: AMES SALMONELLA TYPHIMURIUM, Strain/Indicator: TA98, Metabolic Activation: RAT LIVER S-9, PHENOBARBITAL AND BETA-NAPHTHOFLAVONE (10%), Method: PREINCUBATION): inactive; negative | mutagenic call (Test System: AMES SALMONELLA TYPHIMURIUM, Strain/Indicator: TA98, Metabolic Activation: RAT LIVER S-9, PHENOBARBITAL AND BETA-NAPHTHOFLAVONE (30%), Method: PREINCUBATION): inactive; negative | mutagenic call (Test System: AMES SALMONELLA TYPHIMURIUM, Strain/Indicator: TA98, Metabolic Activation: RAT LIVER S-9, PHENOBARBITAL AND BETA-NAPHTHOFLAVONE, Method: GAS EXPOSURE): inactive; negative | mutagenic call (Test System: AMES SALMONELLA TYPHIMURIUM, Strain/Indicator: TA100, Metabolic Activation: HAMSTER LIVER S-9, PHENOBARBITAL AND BETA-NAPHTHOFLAVONE (10%), Method: PREINCUBATION): inactive; negative | mutagenic call (Test System: AMES SALMONELLA TYPHIMURIUM, Strain/Indicator: TA100, Metabolic Activation: HAMSTER LIVER S-9, PHENOBARBITAL AND BETA-NAPHTHOFLAVONE (30%), Method: PREINCUBATION): inactive; negative | mutagenic call (Test System: AMES SALMONELLA TYPHIMURIUM, Strain/Indicator: TA100, Metabolic Activation: NONE, Method: GAS EXPOSURE): inactive; negative | mutagenic call (Test System: AMES SALMONELLA TYPHIMURIUM, Strain/Indicator: TA100, Metabolic Activation: NONE, Method: PREINCUBATION): inactive; negative | mutagenic call (Test System: AMES SALMONELLA TYPHIMURIUM, Strain/Indicator: TA100, Metabolic Activation: NONE, Method: STANDARD PLATE): inactive; negative | mutagenic call (Test System: AMES SALMONELLA TYPHIMURIUM, Strain/Indicator: TA100, Metabolic Activation: RAT LIVER S-9, PHENOBARBITAL AND 5,6-BENZOFLAVONE, Method: PREINCUBATION): inactive; negative | mutagenic call (Test System: AMES SALMONELLA TYPHIMURIUM, Strain/Indicator: TA100, Metabolic Activation: RAT LIVER S-9, PHENOBARBITAL AND 5,6-BENZOFLAVONE, Method: STANDARD PLATE): inactive; negative | mutagenic call (Test System: AMES SALMONELLA TYPHIMURIUM, Strain/Indicator: TA100, Metabolic Activation: RAT LIVER S-9, PHENOBARBITAL AND BETA-NAPHTHOFLAVONE (10%), Method: PREINCUBATION): inactive; negative | mutagenic call (Test System: AMES SALMONELLA TYPHIMURIUM, Strain/Indicator: TA100, Metabolic Activation: RAT LIVER S-9, PHENOBARBITAL AND BETA-NAPHTHOFLAVONE (30%), Method: PREINCUBATION): inactive; negative | mutagenic call (Test System: AMES SALMONELLA TYPHIMURIUM, Strain/Indicator: TA100, Metabolic Activation: RAT LIVER S-9, PHENOBARBITAL AND BETA-NAPHTHOFLAVONE, Method: GAS EXPOSURE): inactive; negative | mutagenic call (Test System: AMES SALMONELLA TYPHIMURIUM, Strain/Indicator: TA1535, Metabolic Activation: HAMSTER LIVER S-9, PHENOBARBITAL AND BETA-NAPHTHOFLAVONE (10%), Method: PREINCUBATION): inactive; negative | mutagenic call (Test System: AMES SALMONELLA TYPHIMURIUM, Strain/Indicator: TA1535, Metabolic Activation: HAMSTER LIVER S-9, PHENOBARBITAL AND BETA-NAPHTHOFLAVONE (30%), Method: PREINCUBATION): inactive; negative | mutagenic call (Test System: AMES SALMONELLA TYPHIMURIUM, Strain/Indicator: TA1535, Metabolic Activation: NONE, Method: GAS EXPOSURE): inactive; negative | mutagenic call (Test System: AMES SALMONELLA TYPHIMURIUM, Strain/Indicator: TA1535, Metabolic Activation: NONE, Method: PREINCUBATION): inactive; negative | mutagenic call (Test System: AMES SALMONELLA TYPHIMURIUM, Strain/Indicator: TA1535, Metabolic Activation: NONE, Method: STANDARD PLATE): inactive; negative | mutagenic call (Test System: AMES SALMONELLA TYPHIMURIUM, Strain/Indicator: TA1535, Metabolic Activation: RAT LIVER S-9, PHENOBARBITAL AND 5,6-BENZOFLAVONE, Method: PREINCUBATION): inactive; negative | mutagenic call (Test System: AMES SALMONELLA TYPHIMURIUM, Strain/Indicator: TA1535, Metabolic Activation: RAT LIVER S-9, PHENOBARBITAL AND 5,6-BENZOFLAVONE, Method: STANDARD PLATE): inactive; negative | mutagenic call (Test System: AMES SALMONELLA TYPHIMURIUM, Strain/Indicator: TA1535, Metabolic Activation: RAT LIVER S-9, PHENOBARBITAL AND BETA-NAPHTHOFLAVONE (10%), Method: PREINCUBATION): inactive; negative
